Data on 15 compounds can be found in ChEMBL document CHEMBL1909046, “DrugMatrix in vitro pharmacology data”.

The structures appear in SMILES notation.

A short description of data set [1]: DRUGMATRIX: Phosphodiesterase PDE4 enzyme inhibition (substrate: [3H]cAMP + cAMP). The conditions noted are these: u-937; Not Active = under 50% inhibition at 10 µM.
In the next data set the target is T1, Caspase-1 (Homo sapiens, UniProt P29466).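 Further: Caspase-1 enzyme inhibition assay with a peptide substrate; in other assays of this panel Not Active means under 50% inhibition at 10 µM.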
T1 sequence (P29466 whole entry): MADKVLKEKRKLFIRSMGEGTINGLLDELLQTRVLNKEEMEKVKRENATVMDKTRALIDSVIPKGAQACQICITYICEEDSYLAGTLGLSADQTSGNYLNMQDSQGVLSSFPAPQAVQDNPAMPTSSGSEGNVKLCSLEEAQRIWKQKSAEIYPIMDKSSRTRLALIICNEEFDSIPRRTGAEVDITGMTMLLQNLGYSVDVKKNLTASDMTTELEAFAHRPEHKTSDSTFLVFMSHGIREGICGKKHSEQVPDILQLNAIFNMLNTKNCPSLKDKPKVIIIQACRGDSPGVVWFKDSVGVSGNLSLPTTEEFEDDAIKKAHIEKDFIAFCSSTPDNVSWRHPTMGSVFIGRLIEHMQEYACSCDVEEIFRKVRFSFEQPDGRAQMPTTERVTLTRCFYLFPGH
Details: species or system Escherichia coli.

In data set [2] the target is Mitogen-activated protein kinase 3 (Homo sapiens, UniProt P27361). Put plainly: DRUGMATRIX: Protein Serine/Threonine Kinase, ERK1 enzyme inhibition (substrate: Myelin Basic Protein). More on the design: species or system Escherichia coli. The conditions noted are these: Not Active = under 50% inhibition at 10 µM.
The next data set concerns the target Melanocortin receptor 3 (Homo sapiens, UniProt P41968). Format: cell membranes, HEK293, Membrane. The settings on record: hek293. Further: in other assays of this panel Not Active means under 50% inhibition at 10 µM.
Data set [3] can be described thus: DRUGMATRIX: ATPase, Na+/K+ enzyme inhibition (substrate: ATP). Format: tissue-based, Sus scrofa, Heart. The settings on record: Not Active = under 50% inhibition at 10 µM.
Data set [4] concerns the target T2, Cholecystokinin receptor type A (Homo sapiens, UniProt P32238). Further: in other assays of this panel Not Active means under 50% inhibition at 10 µM.
T2 sequence (P32238 whole entry): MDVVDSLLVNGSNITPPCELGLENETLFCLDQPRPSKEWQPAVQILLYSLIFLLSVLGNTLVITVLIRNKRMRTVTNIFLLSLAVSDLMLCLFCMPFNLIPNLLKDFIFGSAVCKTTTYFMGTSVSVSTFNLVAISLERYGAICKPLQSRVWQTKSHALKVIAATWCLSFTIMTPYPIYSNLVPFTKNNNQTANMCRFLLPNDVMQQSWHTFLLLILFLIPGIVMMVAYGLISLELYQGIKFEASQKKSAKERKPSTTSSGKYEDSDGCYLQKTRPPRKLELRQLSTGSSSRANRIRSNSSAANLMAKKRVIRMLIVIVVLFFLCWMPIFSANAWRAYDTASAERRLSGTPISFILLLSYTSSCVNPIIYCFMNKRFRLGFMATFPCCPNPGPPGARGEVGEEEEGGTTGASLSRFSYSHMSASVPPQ
Format: cell membranes, Membrane. The settings on record: 1321-n1.

The target of data set [5] is T3, Amine oxidase [flavin-containing] A (Homo sapiens, UniProt P21397).
T3 sequence (P21397 whole entry): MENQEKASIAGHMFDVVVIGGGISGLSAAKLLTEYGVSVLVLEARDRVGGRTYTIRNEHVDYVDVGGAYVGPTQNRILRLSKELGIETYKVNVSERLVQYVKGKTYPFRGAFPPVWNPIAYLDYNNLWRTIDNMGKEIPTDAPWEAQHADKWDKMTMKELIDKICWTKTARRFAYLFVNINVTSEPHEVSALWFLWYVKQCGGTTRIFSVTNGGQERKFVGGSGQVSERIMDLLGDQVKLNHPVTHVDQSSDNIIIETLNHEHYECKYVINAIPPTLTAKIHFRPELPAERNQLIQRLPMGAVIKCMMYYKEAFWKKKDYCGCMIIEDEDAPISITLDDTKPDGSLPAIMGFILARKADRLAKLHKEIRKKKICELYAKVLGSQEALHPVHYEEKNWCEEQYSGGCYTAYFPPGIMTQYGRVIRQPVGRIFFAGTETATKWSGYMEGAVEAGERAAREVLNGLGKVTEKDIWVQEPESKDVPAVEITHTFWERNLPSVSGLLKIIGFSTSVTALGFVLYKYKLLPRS
Put plainly: DRUGMATRIX: Monoamine Oxidase MAO-A enzyme inhibition (substrate: Kynuramine). More on the design: species or system BTI-TN-5B1-4. The conditions noted are these: bti-tn-5b1-4; Not Active = under 50% inhibition at 10 µM.

Another data set deals with Cytochrome P450 2C9 (Homo sapiens, UniProt P11712). The conditions noted are these: bti-tn-5b1-4.

As a reminder, the IC50 is the concentration at which inhibition is half-maximal.

Sequence of Mitogen-activated protein kinase 3 (P27361 whole entry): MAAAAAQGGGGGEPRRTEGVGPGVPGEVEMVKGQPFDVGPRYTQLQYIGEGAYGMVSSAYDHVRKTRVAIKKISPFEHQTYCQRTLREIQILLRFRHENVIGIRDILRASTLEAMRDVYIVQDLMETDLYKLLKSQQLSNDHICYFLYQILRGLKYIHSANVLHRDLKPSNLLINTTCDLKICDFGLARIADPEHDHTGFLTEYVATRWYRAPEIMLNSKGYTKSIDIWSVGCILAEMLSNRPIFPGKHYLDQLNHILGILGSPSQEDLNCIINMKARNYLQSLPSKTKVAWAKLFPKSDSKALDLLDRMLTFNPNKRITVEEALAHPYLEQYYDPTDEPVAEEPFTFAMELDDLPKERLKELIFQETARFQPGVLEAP
Sequence of Melanocortin receptor 3 (P41968 whole entry): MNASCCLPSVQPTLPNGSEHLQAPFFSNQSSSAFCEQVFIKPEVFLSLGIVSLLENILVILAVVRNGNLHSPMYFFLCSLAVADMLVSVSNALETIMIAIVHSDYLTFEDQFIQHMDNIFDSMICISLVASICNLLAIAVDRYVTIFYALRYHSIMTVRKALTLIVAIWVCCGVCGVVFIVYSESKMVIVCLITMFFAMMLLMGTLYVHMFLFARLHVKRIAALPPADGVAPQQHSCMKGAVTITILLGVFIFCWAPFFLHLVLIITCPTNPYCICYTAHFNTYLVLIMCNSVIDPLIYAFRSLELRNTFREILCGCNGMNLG
Sequence of Cytochrome P450 2C9 (P11712 whole entry): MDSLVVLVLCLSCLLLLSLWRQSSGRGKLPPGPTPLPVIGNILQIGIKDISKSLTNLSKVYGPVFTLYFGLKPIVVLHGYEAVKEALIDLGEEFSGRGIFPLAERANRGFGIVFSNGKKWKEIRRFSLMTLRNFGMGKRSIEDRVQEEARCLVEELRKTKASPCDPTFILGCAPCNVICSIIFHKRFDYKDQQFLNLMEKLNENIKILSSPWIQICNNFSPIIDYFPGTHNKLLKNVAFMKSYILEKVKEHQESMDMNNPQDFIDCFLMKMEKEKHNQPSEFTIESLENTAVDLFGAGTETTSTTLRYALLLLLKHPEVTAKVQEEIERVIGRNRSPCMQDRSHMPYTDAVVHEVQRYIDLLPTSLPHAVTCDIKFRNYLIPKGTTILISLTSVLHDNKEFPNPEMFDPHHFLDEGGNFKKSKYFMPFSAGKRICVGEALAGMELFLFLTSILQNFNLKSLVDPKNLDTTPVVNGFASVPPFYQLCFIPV

For `O=C(c1ccccc1C(F)(F)F)N1CCC(Cc2ccccc2)CC1`, the IC50 entry (in data set [1]; at Caspase-1; in data set [2]; at Melanocortin receptor 3; in data set [3]; in data set [4]) was “Not Active” in each case. Further, in data set [5], the IC50 result is reported as “Not Active”. Also, the Ki result in data set [1] and in data set [3] was “Not Active” each time.
In the case of `NCCCC(O)(P(=O)(O)O)P(=O)(O)O` [ALENDRONIC ACID], the IC50 entry (in data set [1]; on Caspase-1; in data set [2]; against Melanocortin receptor 3; in data set [3]; in data set [4]) was “Not Active” in each case. In addition, in data set [5], the IC50 entry was “Not Active”. In addition, the Ki entry in data set [1] and in data set [3] was “Not Active” in each case.
Consider `Cn1c(=O)c2[nH]cnc2n(C)c1=O.Cn1c(=O)c2[nH]cnc2n(C)c1=O.NCCN` [AMINOPHYLLINE], for which the IC50 entry (in data set [1]; against Caspase-1; in data set [2]; at Melanocortin receptor 3; in data set [3]; in data set [4]) was “Not Active” throughout. In addition, the IC50 result in data set [5] is listed as “Not Active”. Moreover, the Ki result in data set [1] and in data set [3] was “Not Active” throughout.
On to `CC1(C)S[C@@H]2[C@H](NC(=O)[C@H](N)c3ccccc3)C(=O)N2[C@H]1C(=O)O` [AMPICILLIN], for which the IC50 result (in data set [1]; against Caspase-1; in data set [2]; against Melanocortin receptor 3; in data set [3]; in data set [4]) was “Not Active” throughout. Further, in data set [5], the IC50 entry is “Not Active”. Besides, the Ki result in data set [1] and in data set [3] was “Not Active” each time.
Take `CN1[C@@H]2CC[C@H]1C[C@@H](OC(=O)C(CO)c1ccccc1)C2` (stereo partly drawn) [ATROPINE]: the half-maximal inhibitory concentration (IC50) result (in data set [1]; against Caspase-1; in data set [2]; on Melanocortin receptor 3; in data set [3]; in data set [4]) was “Not Active” each time. Moreover, the IC50 result in data set [5] was “Not Active”. Further, the Ki entry in data set [1] and in data set [3] was “Not Active” each time.
With `CC(=O)Oc1ccc(C(c2ccc(OC(C)=O)cc2)c2ccccn2)cc1` [BISACODYL], the IC50 entry (in data set [1]; on Caspase-1; in data set [2]; against Melanocortin receptor 3; in data set [3]; in data set [4]) was “Not Active” throughout. In addition, the IC50 entry in data set [5] is “Not Active”. In addition, the Ki entry in data set [1] and in data set [3] was “Not Active” in each case.
For the compound `C[C@@H]1C[C@H]2[C@@H]3CCC4=CC(=O)C=C[C@]4(C)[C@@]3(F)[C@@H](O)C[C@]2(C)[C@@]1(O)C(=O)CO` [DEXAMETHASONE], the IC50 entry (in data set [1]; against Caspase-1; in data set [2]; at Melanocortin receptor 3; in data set [3]; in data set [4]) was “Not Active” each time. For the same compound, the IC50 entry in data set [5] is listed as “Not Active”. The Ki entry in data set [1] and in data set [3] was “Not Active” in each case.
For `C[C@@H](CO)NC(=O)[C@@H]1C=C2c3cccc4[nH]cc(c34)C[C@H]2N(C)C1` [ERGONOVINE], the IC50 result (in data set [1]; on Caspase-1; in data set [2]; on Melanocortin receptor 3; in data set [3]; at Cytochrome P450 2C9) was “Not Active” in each case. The IC50 result in data set [5] is on record as “Not Active”. The Ki result (in data set [1]; in data set [3]; at Cytochrome P450 2C9) was “Not Active” each time.
Regarding `C#C[C@]1(OC(C)=O)CC[C@H]2[C@@H]3CCC4=C[C@@H](OC(C)=O)CC[C@@H]4[C@H]3CC[C@@]21C` [ETHYNODIOL DIACETATE], the IC50 result (in data set [1]; against Caspase-1; in data set [2]; against Melanocortin receptor 3; in data set [3]; on Cytochrome P450 2C9) was “Not Active” throughout. Also, in data set [4], the IC50 result is reported as “Not Active”. The Ki entry (in data set [1]; in data set [3]; at Cytochrome P450 2C9) was “Not Active” throughout.
Take `COc1cc([C@@H]2c3cc4c(cc3[C@@H](O[C@@H]3O[C@@H]5CO[C@@H](C)O[C@H]5[C@H](O)[C@H]3O)[C@H]3COC(=O)[C@H]23)OCO4)cc(OC)c1O` [ETOPOSIDE]: the IC50 result (in data set [1]; at Caspase-1; in data set [2]; against Melanocortin receptor 3; in data set [3]; in data set [4]) was “Not Active” throughout. In addition, in data set [5], the IC50 result was “Not Active”. Moreover, the Ki result in data set [1] and in data set [3] was “Not Active” in each case.
Turning to `CC(C)(C)NC(=O)[C@H]1CC[C@H]2[C@@H]3CC[C@H]4NC(=O)C=C[C@]4(C)[C@H]3CC[C@]12C` [FINASTERIDE], the IC50 entry (in data set [1]; at Caspase-1; in data set [2]; at Melanocortin receptor 3; in data set [3]; in data set [4]) was “Not Active” each time. In addition, the IC50 entry in data set [5] was “Not Active”. Also, the Ki result in data set [1] and in data set [3] was “Not Active” throughout.
Regarding `COc1ccc2c3c1O[C@H]1C[C@@H](O)C=C[C@@]31CCN(C)C2` [GALANTAMINE], the IC50 result (in data set [1]; on Caspase-1; in data set [2]; against Melanocortin receptor 3; in data set [3]; in data set [4]) was “Not Active” each time. In addition, the IC50 result in data set [5] is on record as “Not Active”. For the same compound, the Ki entry in data set [1] and in data set [3] was “Not Active” throughout.
Regarding `CC(C)=CCC/C(C)=C/CO` [GERANIOL], the IC50 result (in data set [1]; at Caspase-1; in data set [2]; at Melanocortin receptor 3; in data set [3]; in data set [4]) was “Not Active” throughout. Also, the IC50 result in data set [5] is listed as “Not Active”. Further, the Ki entry in data set [1] and in data set [3] was “Not Active” each time.
As to `CC(=O)[C@@]1(O)CC[C@H]2[C@@H]3CCC4=CC(=O)CC[C@]4(C)[C@H]3CC[C@@]21C` [HYDROXYPROGESTERONE], the IC50 entry was “Not Active” in data set [1]; “Not Active” against Caspase-1; 3.16 µM in data set [2] (read-out: IC50); “Not Active” on Melanocortin receptor 3; “Not Active” in data set [3]; “Not Active” in data set [4]. For the same compound, in data set [5], the IC50 entry is given as “Not Active”. For the same compound, the Ki result in data set [1] and in data set [3] was “Not Active” each time.
For `CC(=O)O[C@H]1C(=O)[C@@]2(C)[C@H]([C@H](OC(=O)c3ccccc3)[C@]3(O)C[C@H](OC(=O)[C@H](O)[C@@H](NC(=O)c4ccccc4)c4ccccc4)C(C)=C1C3(C)C)[C@]1(OC(C)=O)CO[C@@H]1C[C@@H]2O` [PACLITAXEL], the IC50 entry (in data set [1]; against Caspase-1; in data set [2]; against Melanocortin receptor 3; in data set [3]; against Cytochrome P450 2C9) was “Not Active” throughout. In data set [5], the IC50 result is recorded as “Not Active”. Moreover, the Ki entry (in data set [1]; in data set [3]; on Cytochrome P450 2C9) was “Not Active” each time.
